For assay [1], the system named is Nucleic Acid. Put plainly: In vitro ability to selectively inhibit the translation of rhinoviral RNA in translation assay. It counts as functional. The settings on record: Human rhinovirus sp.
The target of assay [2] is T1, Human rhinovirus A protease (Human rhinovirus sp., UniProt Q4U254).
T1 sequence (Q4U254 whole entry): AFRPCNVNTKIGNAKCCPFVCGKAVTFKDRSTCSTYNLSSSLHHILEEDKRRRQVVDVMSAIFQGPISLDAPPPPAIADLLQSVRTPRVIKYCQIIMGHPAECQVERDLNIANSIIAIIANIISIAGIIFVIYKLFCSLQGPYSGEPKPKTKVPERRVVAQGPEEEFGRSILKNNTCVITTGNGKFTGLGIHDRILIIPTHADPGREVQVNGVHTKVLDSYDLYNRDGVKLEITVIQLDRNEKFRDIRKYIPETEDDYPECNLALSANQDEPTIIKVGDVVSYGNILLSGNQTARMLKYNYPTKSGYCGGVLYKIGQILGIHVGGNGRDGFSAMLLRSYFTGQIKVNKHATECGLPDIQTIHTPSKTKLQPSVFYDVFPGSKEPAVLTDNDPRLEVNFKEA
The experiment in a line: Inhibitory activity against human rhinovirus-14 Protease 3C. The arrangement: species or system rhinovirus B14.

For assay [3], the system named is Nucleic Acid. The experiment in a line: In vitro ability to selectively inhibit the translation of rhinoviral RNA in translation assay; Toxic. It counts as functional. The following applies: Human rhinovirus sp.
Another assay relates to rhinovirus B14. The experiment in a line: Inhibitory activity against human rhinovirus-14 in cell culture. It counts as functional. The following applies: Rhinovirus B; read-out: ED50 (the source's name).

Where a SMILES comes first, the peptide text is derived from it. The star is where a group is joined. Boc = CC(C)(C)OC(=O)*

The source of these data is ChEMBL document CHEMBL1128810, “Glutamine-derived aldehydes for the inhibition of human rhinovirus 3C protease” (Bioorg Med Chem Lett, 1995).

As for `CC(=O)N[C@@H](CC(C)C)C(=O)N[C@@H](Cc1ccccc1)C(=O)N[C@H](C=O)CCC(N)=O` (Ac-Leu-Phe-Gln-aldehyde), in the assay on Nucleic Acid [1], the Activity came to 170 µM. This compound gave an IC50 in assay [2] of 2.7 µM.
Consider `CC(C)C[C@H](N)C(=O)N[C@@H](Cc1ccccc1)C(=O)N[C@H](C=O)CCC(N)=O` (H-Leu-Phe-Gln-aldehyde), for which the Activity entry with Nucleic Acid [3] is “Toxic”. In assay [2], this compound yielded a half-inhibitory concentration (IC50) of 1 µM.
`CC(C)(C)OC(=O)N[C@@H](Cc1ccccc1)C(=O)N[C@H](C=O)CCC(N)=O` registered a 50% inhibitory concentration (IC50) in assay [2] of over 80 µM.
The compound `CC(C)C[C@H](NC(=O)[C@@H](NC(=O)OC(C)(C)C)C(C)C)C(=O)N[C@@H](Cc1ccccc1)C(=O)NCC=O` (Boc-VLFG-aldehyde) yielded an Activity with Nucleic Acid [1] of 180 µM. The same compound showed an IC50 in assay [2] of 10 µM.
The compound `CC(=O)NCC(=O)N[C@@H](Cc1ccccc1)C(=O)N[C@H](C=O)CCC(N)=O` (Ac-Gly-Phe-Gln-aldehyde) returned an IC50 in assay [2] of 16 µM.
For the compound `CC(C)CC(=O)N[C@@H](Cc1ccccc1)C(=O)N[C@H](C=O)CCC(N)=O`, the Activity in the assay with Nucleic Acid [1] is over 200 µM. This compound displayed a 50% inhibitory concentration (IC50) in assay [2] of over 80 µM.
In turn, `CC(C)C[C@H](NC(=O)OC(C)(C)C)C(=O)N[C@@H](Cc1ccccc1)C(=O)N[C@H](C=O)CCC(N)=O` (Boc-Leu-Phe-Gln-aldehyde) came in with an IC50 in assay [2] of over 80 µM.
As for `CC(C)C[C@H](NC(=O)[C@@H](NC(=O)OC(C)(C)C)C(C)C)C(=O)N[C@@H](Cc1ccccc1)C(=O)N[C@H](C=O)CCC(N)=O` (Boc-VLFQ-aldehyde), the EC50 with rhinovirus B14 was determined as 500 µM. The compound also yielded an Activity in the assay on Nucleic Acid [1] of 10 µM. The same compound registered an IC50 in assay [2] of 0.6 µM.

A word on the IC50: it is the concentration needed to halve the response being measured. Read a low IC50 as greater potency.
